Test results reported in PubChem BioAssay AID248 (DTP/NCI, 2004).
“And” between values parts separate entries of the source, which are not always exact repeats. Identical values can stand only once. Inconclusive results and toxic doses are left out. Cut-off read from the data, not from the text of the source: active = T/C of 150% or more; inactive = T/C below 125%.

Tested on: L1210 leukemia ip in BDF1 mice, survival T/C
Assay: NCI In Vivo Anticancer Drug Screen. Data for tumor model L1210 Leukemia (intraperitoneal) in B6D2F1 (BDF1) mice
Conditions: endpoint: mean survival time, higher = longer survival
Outline: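 Each compound was tested against a transplantable tumor grown in mice. The endpoint was survival, with treated animals benchmarked against vehicle controls as a simple ratio.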

[1] = dose: 100.0 mg/kg/injection, schedule: Q01DX009 (ip), vehicle: Klucel (hydroxypropylcellulose) (HPC)
[2] = dose: 200.0 mg/kg/injection, schedule: Q01DX009 (ip), vehicle: Klucel (hydroxypropylcellulose) (HPC)
[3] = dose: 400.0 mg/kg/injection, schedule: Q01DX009 (ip), vehicle: Klucel (hydroxypropylcellulose) (HPC)
[4] = dose: 100.0 mg/kg/injection, schedule: Q04DX003 (ip), vehicle: Klucel (hydroxypropylcellulose) (HPC)
[5] = dose: 200.0 mg/kg/injection, schedule: Q04DX003 (ip), vehicle: Klucel (hydroxypropylcellulose) (HPC)
[6] = dose: 100.0 mg/kg/injection, schedule: Q01DX001 (ip), vehicle: saline
[7] = dose: 200.0 mg/kg/injection, schedule: Q01DX001 (ip), vehicle: saline
[8] = dose: 400.0 mg/kg/injection, schedule: Q01DX001 (ip), vehicle: saline
[9] = dose: 400.0 mg/kg/injection, schedule: Q04DX003 (ip), vehicle: Klucel (hydroxypropylcellulose) (HPC)
[10] = dose: 25.0 mg/kg/injection, schedule: Q04DX003 (ip), vehicle: saline with Tween-80
[11] = dose: 50.0 mg/kg/injection, schedule: Q04DX003 (ip), vehicle: saline with Tween-80
[12] = dose: 100.0 mg/kg/injection, schedule: Q04DX003 (ip), vehicle: saline with Tween-80
[13] = dose: 100.0 mg/kg/injection, schedule: Q04DX002 (ip), vehicle: Klucel (hydroxypropylcellulose) (HPC)
[14] = dose: 200.0 mg/kg/injection, schedule: Q04DX002 (ip), vehicle: Klucel (hydroxypropylcellulose) (HPC)
[15] = dose: 100.0 mg/kg/injection, schedule: Q01DX009 (ip), vehicle: saline with Tween-80
[16] = dose: 200.0 mg/kg/injection, schedule: Q01DX009 (ip), vehicle: saline with Tween-80
[17] = dose: 400.0 mg/kg/injection, schedule: Q01DX009 (ip), vehicle: saline with Tween-80
[18] = dose: 200.0 mg/kg/injection, schedule: Q04DX003 (ip), vehicle: saline with Tween-80
[19] = dose: 400.0 mg/kg/injection, schedule: Q04DX003 (ip), vehicle: saline with Tween-80
[20] = dose: 100.0 mg/kg/injection, schedule: Q01DX009 (ip), vehicle: saline
[21] = dose: 100.0 mg/kg/injection, schedule: Q04DX002 (ip), vehicle: saline with Tween-80
[22] = dose: 200.0 mg/kg/injection, schedule: Q04DX002 (ip), vehicle: saline with Tween-80
[23] = dose: 400.0 mg/kg/injection, schedule: Q04DX002 (ip), vehicle: saline with Tween-80

Measured: T/C

O=c1[nH]c2nc3ccccc3nc2c(=O)n1OS(=O)(=O)c1ccccc1
inactive: [1] 96 % of control | [2] 100 % of control | [3] 98 % of control

O=C(Nc1ccccc1F)Nc1cc([N+](=O)[O-])ccc1Cl
inactive: [1] 87 % of control | [2] 94 % of control | [3] 87 % of control

CC(=O)Nc1cc(C(=O)Nc2ccc(C)cc2C)ccc1C
inactive: dose: 50.0 mg/kg/injection, schedule: Q04DX003 (ip), vehicle: Klucel (hydroxypropylcellulose) (HPC) 92 % of control | [4] 92 % of control | [5] 92 % of control

CSc1n[nH]c(=O)[nH]c1=O
inactive: [6] 100 % of control | [7] 102 % of control | [8] 94 % of control

CN(C)C(=O)C1Cc2ccccc2CC1C(=O)N(C)C (stereo not drawn)
inactive: dose: 50.0 mg/kg/injection, schedule: Q01DX009 (ip), vehicle: Klucel (hydroxypropylcellulose) (HPC) 97 % of control | [1] 97 % of control | [4] 101 % of control | [2] 101 % of control | [5] 102 % of control | [9] 97 % of control

CC(=O)Nc1ccc(OC(=O)Nc2ccccc2Cl)cc1
inactive: [1] 101 % of control | [4] 96 % of control | [5] 95 % of control | [3] 101 % of control | [9] 95 % of control

COc1ccc(/C=N/O)c(C)c1OC
inactive: [6] 98 % of control | [7] 96 % of control | [8] 96 % of control

O=C(Nc1cccnc1)Nc1ccc(Cl)c(Cl)c1
inactive: [4] 98 % of control | [5] 93 % of control | [9] 94 % of control

OCC12COC(c3ccccc3)N1C(c1ccccc1)OC2 (stereo not drawn)
inactive: [1] 102 % of control | [4] 102 % of control | [2] 102 % of control | [5] 102 % of control | [3] 97 % of control | [9] 100 % of control

O=C(Sc1cccc(Br)c1)c1ccccc1
inactive: dose: 100.0 mg/kg/injection, schedule: Q01DX001 (ip), vehicle: other 100 % of control | dose: 200.0 mg/kg/injection, schedule: Q01DX001 (ip), vehicle: other 95 % of control | dose: 400.0 mg/kg/injection, schedule: Q01DX001 (ip), vehicle: other 94 % of control

CC(C)Cc1ccc(OC(=O)Nc2ccc(Cl)cc2)cc1
inactive: [10] 95 % of control | [11] 95 % of control | [12] 95 % of control

NNC(=O)CNc1ccc(Br)cc1F
inactive: [13] 104 % of control | [14] 115 % of control

CCc1ccc(NC(=O)Nc2ccccc2C)cc1
inactive: [1] 92 % of control | [4] 93 % of control | [2] 94 % of control | [5] 93 % of control | [3] 100 % of control | [9] 94 % of control

O=C(Nc1ccc(CCO)cc1)Nc1ccccc1C(F)(F)F
inactive: [15] 97 % of control | [16] 90 % of control | [17] 92 % of control

O=C1C=C(c2ccccc2)Sc2ccccc2N1
inactive: [12] 97 % of control | [18] 100 % of control | [19] 97 % of control

NCc1ccc(NC(=O)c2ccc(C(=O)Nc3ccc(CN)cc3)c(N)c2)cc1
inactive: dose: 21.0 mg/kg/injection, schedule: Q01DX Z (ip), vehicle: water 100 % of control | dose: 42.0 mg/kg/injection, schedule: Q01DX Z (ip), vehicle: water 98 % of control

O=C(CC(O)(C(F)(F)F)C(F)(F)F)c1cccc(S(=O)(=O)F)c1
inactive: [12] 95 % of control | [18] 100 % of control

Cc1c(Cl)ccc2c1S(=O)(=O)c1cccc(Cl)c1-2
inactive: [13] 104 % of control | [14] 96 % of control | dose: 400.0 mg/kg/injection, schedule: Q04DX002 (ip), vehicle: Klucel (hydroxypropylcellulose) (HPC) 100 % of control

COc1ncnc2c1ncn2C1CC(CO)C(O)C1O (stereo not drawn)
inactive: dose: 25.0 mg/kg/injection, schedule: Q01DX009 (ip), vehicle: saline 102 % of control | dose: 50.0 mg/kg/injection, schedule: Q01DX009 (ip), vehicle: saline 95 % of control | [20] 91 % of control

CCCCCCCCCCCCCCCCCC(=O)N/N=C/c1cc(OC)ccc1OC
inactive: [1] 89 % of control | [2] 86 % of control | [3] 96 % of control

BrCC(CCCc1ccccc1)CCc1ccccc1 (stereo not drawn)
inactive: [21] 93 % of control | [22] 90 % of control | [23] 101 % of control

OC(OCCCCCCOC(O)C(Cl)(Cl)Cl)C(Cl)(Cl)Cl (stereo not drawn)
inactive: [15] 93 % of control | [12] 98 % of control | [16] 98 % of control | [18] 104 % of control | [17] 106 % of control | [19] 98 % of control

OC/C(=N/Nc1ccc2ccccc2n1)c1ccccc1
inactive: [15] 94 % of control | [12] 93 % of control | [16] 93 % of control | [18] 100 % of control | [17] 93 % of control | [19] 89 % of control

CC(C)C1C(=O)N2CCCC2C2(O)OC(C(=O)NCCc3c[nH]c4ccccc34)(C(C)C)C(=O)N12 (stereo not drawn)
inactive: dose: 6.25 mg/kg/injection, schedule: Q04DX003 (ip), vehicle: saline with Tween-80 98 % of control | dose: 12.5 mg/kg/injection, schedule: Q04DX003 (ip), vehicle: saline with Tween-80 111 % of control | dose: 25.0 mg/kg/injection, schedule: Q04DX003 (ip), vehicle: alcohol 98 % of control | [10] 101 % of control | dose: 50.0 mg/kg/injection, schedule: Q04DX003 (ip), vehicle: alcohol 105 % of control | [11] 98 % of control | dose: 100.0 mg/kg/injection, schedule: Q04DX003 (ip), vehicle: alcohol 98 % of control | dose: 200.0 mg/kg/injection, schedule: Q04DX003 (ip), vehicle: alcohol 98 % of control

C1=CC2(CC1)OCCO2
inactive: dose: 50.0 mg/kg/injection, schedule: Q01DX009 (ip), vehicle: saline with Tween-80 106 % of control | [11] 91 % of control | [15] 104 % of control | [12] 102 % of control | [16] 106 % of control | [18] 92 % of control | [17] 104 % of control | [19] 102 % of control

CC(C)NC(=O)C1C2C=CC(C2)C1C(=O)NC(C)C (stereo not drawn)
inactive: [12] 100 % of control | [18] 100 % of control | [19] 91 % of control

C[n+]1c(O)c(C(=O)CCl)n2ccccc21
inactive: [20] 94 % of control | dose: 200.0 mg/kg/injection, schedule: Q01DX009 (ip), vehicle: saline 91 % of control | dose: 400.0 mg/kg/injection, schedule: Q01DX009 (ip), vehicle: saline 92 % of control

COc1ccc(NC(=O)NNC(=O)CCCC(=O)NNC(=O)Nc2ccc(OC)cc2)cc1
inactive: dose: 50.0 mg/kg/injection, schedule: Q01DX001 (ip), vehicle: saline 112 % of control | [6] 102 % of control | [7] 93 % of control | [8] 93 % of control

O=C1c2cc(F)ccc2-c2cc([N+](=O)[O-])ccc21
inactive: dose: 100.0 mg/kg/injection, schedule: Q01DX001 (ip), vehicle: carboxymethylcellulose (CMC) 94 % of control | dose: 200.0 mg/kg/injection, schedule: Q01DX001 (ip), vehicle: carboxymethylcellulose (CMC) 94 % of control | dose: 400.0 mg/kg/injection, schedule: Q01DX001 (ip), vehicle: carboxymethylcellulose (CMC) 99 % of control

NC(=O)Cc1ccc(O)cc1
inactive: dose: 12.5 mg/kg/injection, schedule: Q04DX002 (ip), vehicle: saline with Tween-80 98 % of control | dose: 25.0 mg/kg/injection, schedule: Q04DX002 (ip), vehicle: saline with Tween-80 107 % of control | dose: 50.0 mg/kg/injection, schedule: Q04DX002 (ip), vehicle: saline with Tween-80 93 % of control and 105 % of control | dose: 50.0 mg/kg/injection, schedule: Q04DX002 (ip), vehicle: saline 113 % of control | [21] 98 % of control and 101 % of control | [22] 96 % of control and 98 % of control | dose: 200.0 mg/kg/injection, schedule: Q04DX002 (ip), vehicle: saline 113 % of control | [23] 101 % of control

Cc1cc(C(=O)O)c(CN)c(=O)n1C
inactive: dose: 100.0 mg/kg/injection, schedule: Q04DX003 (ip), vehicle: water 102 % of control | dose: 200.0 mg/kg/injection, schedule: Q04DX003 (ip), vehicle: water 103 % of control | dose: 400.0 mg/kg/injection, schedule: Q04DX003 (ip), vehicle: water 102 % of control
